The results in this text go back to paper PMC3948749, “Engineering of Pyranose Dehydrogenase for Increased Oxygen Reactivity” (PLoS ONE, 2014).

In test [1] the target is T1, AmPDH (Agaricus meleagris pyranose dehydrogenase, pdh1) (Macropsalliota meleagris, UniProt Q3L245, H128Y).
T1 construct: monomeric glycoprotein about 90 kDa, 64 kDa deglycosylated
Briefly: steady-state kinetics. The class given is biochemical. The settings on record: apparent; electron acceptor; 25 mM D-glucose as donor; pH 4; 30 °C; read-out: H103Y / K m /. An excerpt:
steady-state kinetics on AmPDH (Agaricus meleagris pyranose dehydrogenase, pdh1)

Test [2] concerns the target T2, AmPDH (Agaricus meleagris pyranose dehydrogenase, pdh1) (Macropsalliota meleagris, UniProt Q3L245).
T2 construct: monomeric glycoprotein about 90 kDa, 64 kDa deglycosylated
Briefly: UV-vis spectra before and after TCA/acetone precipitation. It is filed as binding. Particulars: covalent (to H103); pH 7.5 spectra.

Test [3] addresses T1, AmPDH (Agaricus meleagris pyranose dehydrogenase, pdh1). Described as above. It is filed as binding. Particulars: non-covalent, tightly bound; pH 7.5 spectra.
The target is the same in test [4]. Description: steady-state kinetics, ferrocenium assay. The class given is biochemical. Particulars: apparent; electron acceptor; 25 mM D-glucose as donor; pH 8.5; 30 °C; read-out: H103Y / K m /. The source says: steady-state kinetics, ferrocenium assay on AmPDH (Agaricus meleagris pyranose dehydrogenase, pdh1)

T1 sequence (Q3L245 26-602 H128Y): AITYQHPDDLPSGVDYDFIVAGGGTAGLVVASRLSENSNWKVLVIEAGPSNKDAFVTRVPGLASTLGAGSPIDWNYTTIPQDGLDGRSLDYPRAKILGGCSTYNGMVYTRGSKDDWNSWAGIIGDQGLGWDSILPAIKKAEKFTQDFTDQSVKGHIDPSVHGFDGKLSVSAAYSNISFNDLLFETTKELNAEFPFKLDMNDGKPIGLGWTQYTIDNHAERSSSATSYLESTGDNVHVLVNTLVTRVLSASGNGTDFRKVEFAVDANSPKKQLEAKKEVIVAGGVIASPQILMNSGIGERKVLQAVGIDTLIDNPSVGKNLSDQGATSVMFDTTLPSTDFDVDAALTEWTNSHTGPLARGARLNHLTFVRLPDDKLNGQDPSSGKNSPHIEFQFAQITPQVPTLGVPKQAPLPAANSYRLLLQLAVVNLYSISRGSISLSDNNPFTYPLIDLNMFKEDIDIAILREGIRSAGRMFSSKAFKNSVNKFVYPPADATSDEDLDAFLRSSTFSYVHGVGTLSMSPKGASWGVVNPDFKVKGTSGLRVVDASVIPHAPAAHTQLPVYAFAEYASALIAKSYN
T2 sequence (Q3L245 26-602): as the sequence (Q3L245 26-602 H128Y) above, with Y103H counted along it

In the case of `O=C1C=CC(=O)C=C1` [1,4-BQ, 1,4-benzoquinone], the Km in test [1] worked out at 3640 ± 470 µM.
`Cc1cc2nc3c(=O)[nH]c(=O)nc-3n(C[C@H](O)[C@H](O)[C@H](O)COP(=O)(O)OP(=O)(O)OC[C@H]3O[C@@H](n4cnc5c(N)ncnc54)[C@H](O)[C@@H]3O)c2cc1C` [FAD]: the “UV-vis spectra before and after TCA/acetone precipitation” value in test [2] is “the wild-type protein did not release the covalently bound FAD”; in test [3] it was “the variant H103Y carries a tightly but non-covalently bound FAD cofactor”.
For the compound `F[P-](F)(F)(F)(F)F.[Fe+3].c1cc[cH-]c1.c1cc[cH-]c1` [Fc+PF6, ferrocenium hexafluorophosphate], the Km in test [4] was 100 ± 10 µM.
